Assay results reported in patent US8815852B2, “Carbamoyloxy arylalkan arylpiperazine analgesics” (SK Biopharmaceuticals Co., Ltd., priority 2007, dated 2014).

tested on: male ICR mouse; test: Acetic acid-induced writhing test in mouse; type: in vivo; settings: Mus musculus, po, 1 h, at 10 po (method: 10 mg/kg oral, 1 hour before acetic acid); read-out: AA Writhing: Suppression ratio of Pain response
Experimental: 2. Acetic Acid-Induced Writhing Test in Mouse
An acetic acid-induced writhing test is one of models for measuring an analgesic effect of drugs. A test material dissolved in a suitable vehicle was orally administered to a male ICR mouse weighing 30 to 35 g at an amount of 10 mg/kg. After 1 hour of the oral administration, […] of an aqueous 0.8% acetic acid solution was intraperitoneally injected into the male ICR mouse to induce the abdominal pain of the male ICR mouse. Right after the administration of acetic acid, the male ICR mouse was put into an empty cage, and the number of writhing behaviors of the mice was counted for 10 minutes. The term “writhing represents a reflex action in which the mouse overtly extends its abdomen by stretching its hind legs due to the abdominal pain. The analgesic effect of the test material is represented by the ‘suppression ratio of pain response’ {[(Writhing number of Vehicle-administered group−Writhing number of Test material-administered group)/(Writhing number of Vehicle-administered group)]×100%} or 50% of Effective amount (ED50 (median effective dose); an amount of test material that is required to suppress 50% of pain behaviors) of Test material. The ED50 (median effective dose) was determined by calculating the suppression ratio of pain response in at least three doses of test materials and subjecting to the linear regression.

SMILES	inhibition in vivo at 10 mg/kg [%]
NC(=O)OC(CCN1CCN(c2ccc3c(c2)OCCO3)CC1)c1ccccc1 (stereo not drawn) [Example 11, Carbamic acid 3-[4-(2,3-dihydro-benzo[1,4]dioxin-6-yl)-piperazin-1-yl]-1-phenyl-propyl ester]	48
NC(=O)OC(CCN1CCN(c2ccc(OC(F)(F)F)cc2)CC1)c1ccccc1 (stereo not drawn) [Example 12, Carbamic acid 1-phenyl-3-[4-(4-trifluoromethoxy-phenyl)-piperazin-1-yl]-propyl ester]	18
Cc1ccc(N2CCN(CCC(OC(N)=O)c3ccccc3)CC2)c(C)c1 (stereo not drawn) [Example 13, Carbamic acid 3-[4-(2,4-dimethyl-phenyl)-piperazin-1-yl]-1-phenyl-propyl ester]	34
COc1ccc(N2CCN(CCC(OC(N)=O)c3ccccc3)CC2)c(OC)c1 (stereo not drawn) [Example 17, Carbamic acid 3-[4-(2,4-dimethoxy-phenyl)-piperazin-1-yl]-1-phenyl-propyl ester]	19
NC(=O)OC(CCN1CCN(c2ccc(Cl)c(C(F)(F)F)c2)CC1)c1ccccc1 (stereo not drawn) [Example 18, Carbamic acid 3-[4-(4-chloro-3-trifluoromethyl-phenyl)-piperazin-1-yl]-1-phenyl-propyl ester]	52
Cc1cccc(C)c1N1CCN(CCC(OC(N)=O)c2ccccc2)CC1 (stereo not drawn) [Example 19, Carbamic acid 3-[4-(2,6-dimethyl-phenyl)-piperazin-1-yl]-1-phenyl-propyl ester]	48
NC(=O)OC(CCN1CCN(c2ccccc2O)CC1)c1ccccc1 (stereo not drawn) [Example 23, Carbamic acid 3-[4-(2-hydroxy-phenyl)-piperazin-1-yl]-1-phenyl-propyl ester]	37
Cc1ccc(N2CCN(CCC(OC(N)=O)c3ccccc3)CC2)cc1C (stereo not drawn) [Example 29, Carbamic acid 3-[4-(3,4-dimethyl-phenyl)-piperazin-1-yl]-1-phenyl-propyl ester]	99
NC(=O)OC(CCN1CCN(c2ccc3c(c2)OCO3)CC1)c1ccccc1 (stereo not drawn) [Example 30, Carbamic acid 3-(4-benzo[1,3]dioxol-5-yl-piperazin-1-yl)-1-phenyl-propyl ester]	93
NC(=O)OC(CCN1CCN(c2ccc(Cl)c(Cl)c2)CC1)c1ccccc1 (stereo not drawn) [Example 31, Carbamic acid 3-[4-(3,4-dichloro-phenyl)-piperazin-1-yl]-1-phenyl-propyl ester]	85
COc1ccc(Cl)cc1N1CCN(CCC(OC(N)=O)c2ccccc2)CC1 (stereo not drawn) [Example 32, Carbamic acid 3-[4-(5-chloro-2-methoxy-phenyl)-piperazin-1-yl]-1-phenyl-propyl ester]	23
COc1cc(OC)cc(N2CCN(CCC(OC(N)=O)c3ccccc3)CC2)c1 (stereo not drawn) [Example 33, Carbamic acid 3-[4-(3,5-dimethoxy-phenyl)-piperazin-1-yl]-1-phenyl-propyl ester]	13
NC(=O)OC(CCN1CCN(c2ncccn2)CC1)c1ccccc1 (stereo not drawn) [Example 34, Carbamic acid 1-phenyl-3-(4-pyrimidin-2-yl-piperazin-1-yl)-propyl ester]	21
NC(=O)OC(CCN1CCN(c2ccc(C(F)(F)F)cc2[N+](=O)[O-])CC1)c1ccccc1 (stereo not drawn) [Example 35, Carbamic acid 3-[4-(2-nitro-4-trifluoromethyl-phenyl)-piperazin-1-yl]-1-phenyl-propyl ester]	50
COc1ccc(N2CCN(CCC(OC(N)=O)c3ccc([N+](=O)[O-])cc3)CC2)cc1 (stereo not drawn) [Example 44, Carbamic acid 3-[4-(4-methoxy-phenyl)-piperazin-1-yl]-1-(4-nitro-phenyl)-propyl ester]	64
COc1ccc(N2CCN(CCC(OC(N)=O)c3cccc(Cl)c3)CC2)cc1 (stereo not drawn) [Example 45, Carbamic acid 1-(3-chloro-phenyl)-3-[4-(4-methoxy-phenyl)-piperazin-1-yl]-propyl ester]	62
COc1ccc(N2CCN(CCC(OC(N)=O)c3ccccc3F)CC2)cc1 (stereo not drawn) [Example 46, Carbamic acid 1-(2-fluoro-phenyl)-3-[4-(4-methoxy-phenyl)-piperazin-1-yl]-propyl ester]	42
COc1ccc(C(CCN2CCN(c3ccc(OC)cc3)CC2)OC(N)=O)cc1 (stereo not drawn) [Example 47, Carbamic acid 1-(4-methoxy-phenyl)-3-[4-(4-methoxy-phenyl)-piperazin-1-yl]-propyl ester]	53
COc1ccc(N2CCN(CCC(OC(N)=O)c3ccc(C(C)(C)C)cc3)CC2)cc1 (stereo not drawn) [Example 48]	93
COc1ccc(N2CCN(CCC(OC(N)=O)c3ccc4ccccc4c3)CC2)cc1 (stereo not drawn) [Example 49, Carbamic acid 3-[4-(4-methoxy-phenyl)-piperazin-1-yl]-1-naphthalen-2-yl-propyl ester]	64
COc1ccc(N2CCN(CCC(OC(N)=O)c3ccccc3Cl)CC2)cc1 (stereo not drawn) [Example 50, Carbamic acid 1-(2-chloro-phenyl)-3-[4-(4-methoxy-phenyl)-piperazin-1-yl]-propyl ester]	49
COc1ccc(N2CCN(CCC(OC(N)=O)c3ccccc3C(F)(F)F)CC2)cc1 (stereo not drawn) [Example 51, Carbamic acid 3-[4-(4-methoxy-phenyl)-piperazin-1-yl]-1-(2-trifluoromethyl-phenyl)-propyl ester]	95
COc1ccc(N2CCN(CCC(OC(N)=O)c3ccc(F)c(F)c3)CC2)cc1 (stereo not drawn) [Example 52, Carbamic acid 1-(3,4-difluoro-phenyl)-3-[4-(4-methoxy-phenyl)-piperazin-1-yl]-propyl ester]	61
COc1ccc(N2CCN(CCC(OC(N)=O)c3cccc(F)c3)CC2)cc1 (stereo not drawn) [Example 53, Carbamic acid 1-(3-fluoro-phenyl)-3-[4-(4-methoxy-phenyl)-piperazin-1-yl]-propyl ester]	57
COc1ccc(N2CCN(CCC(OC(N)=O)c3cccc(OC)c3)CC2)cc1 (stereo not drawn) [Example 54, Carbamic acid 1-(3-methoxy-phenyl)-3-[4-(4-methoxy-phenyl)-piperazin-1-yl]-propyl ester]	69
COc1ccc(N2CCN(CCC(OC(N)=O)c3cccc4ccccc34)CC2)cc1 (stereo not drawn) [Example 55, Carbamic acid 3-[4-(4-methoxy-phenyl)-piperazin-1-yl]-1-naphthalen-1-yl-propyl ester]	16
COc1ccc(N2CCN(CCC(OC(N)=O)c3ccc(C)cc3)CC2)cc1 (stereo not drawn) [Example 56, Carbamic acid 3-[4-(4-methoxy-phenyl)-piperazin-1-yl]-1-p-tolyl-propyl ester]	93
COc1ccc(N2CCN(CCC(OC(N)=O)c3cccc(C)c3)CC2)cc1 (stereo not drawn) [Example 57, Carbamic acid 3-[4-(4-methoxy-phenyl)-piperazin-1-yl]-1-m-tolyl-propyl ester]	52

same assay, conditions: Mus musculus; ip; unit not given (method doses in mg/kg); read-out: AA Writhing: ED50

SMILES	ED50 [mg/kg]
Cc1cccc(N2CCN(CCC(OC(N)=O)c3ccccc3)CC2)c1 (stereo not drawn) [Example 24, Carbamic acid 1-phenyl-3-(4-m-tolylpiperazin-1-yl)-propyl ester]	0.81
NC(=O)OC(CCN1CCN(c2ccc(C(F)(F)F)cc2)CC1)c1ccccc1 (stereo not drawn) [Example 40, Carbamic acid 1-phenyl-3-[4-(4-trifluoromethyl-phenyl)-piperazin-1-yl]-propyl ester]	1.64
